Laboratory results taken from patent US10350273B2, “Treatment of hormonal disorders of growth” (The United States of America, as represented by the …, priority 2014, dated 2019).
Entries after “also recorded” stand apart in the source; their conditions may differ. Numbered stars: 1 amine (or outer) side, 2 acyl side, 3 side chain; on linkers, the order of the positions; unused ones are H or OH. Square brackets hold non-standard residues; d marks the D form. Side chains are listed from the residue outwards. Ends that are not written are not given here. Peptide text beside a SMILES is read from it. * marks the point of attachment. Ethylenediamine = C(CN[*:2])N[*:1]; Hyp = O=C(O)[C@@H]1C[C@@H](O)CN1; Phg = N[C@H](C(=O)O)c1ccccc1; CO = O=C([*:1])[*:2]; Bn = c1ccc(C*)cc1

Tests used:
somatotroph cells [1] = experiment: GH secretion by primary pituitary tumor cell culture of an X-LAG patient; format: cell-based, human; conditions: for GH change compared to control wells: overnight incubation; for effect on GH secretion (in words): X-LAG pituitary tumor cell culture, dose range; for GH response on co-incubation with GHRH: co-incubation with GHRH 10^−10M
Protocol: (§1) A surgical sample of the human pituitary adenoma of the patient mentioned in example 11 in Dulbecco's modified Eagle's medium (DMEM) was dissociated mechanically and enzymatically as described by Jaquet et al. (Hormonal regulation of prolactin release by human prolactinoma cells cultured in serum-free conditions. Horm Res 22 153-163, 1985). A sample of the medium in the postoperative sample was retained before further preparation. A total of 50,000 tumor cells per well were plated in 24 well plates coated with extracellular matrix from bovine endothelial corneal cells required for cell adhesion. The cells were cultured in DMEM depleted of L-Valine (D-Valine-DMEM) to block fibroblast proliferation, supplemented with 10% fetal calf serum, penicillin (100 U/ml), streptomycin (100 μg/ml), and glutamine ([…]) at 37° C. in a water-saturated atmosphere containing 7% CO2. After 48 h, culture medium was changed to D-Valine DMEM containing 1% ITS (Insulin Transferin Selenium) and 1% fetal calf serum for another 48 h. Cells were incubated with drugs at a range of concentrations (10^−12-10^−7 mol/L) for 16 h (overnight). All the experiments were performed in triplicate. The medium was collected and stored frozen for GH and PRL measurements.
(§2) The somatostatin analogs (SSAs), octreotide and pasireotide were purchased from Novartis (Basel, Switzerland), Forskolin was obtained from Sigma-Aldrich (St. Quentin Fallavier, France), Cabergoline was obtained from Pfizer (Pharmacia & Upjohn Kalamazoo, USA), MK-0677 (ghrelin analog) was obtained from Europeptide, Argenteuil France, and MSP (ghrelin receptor-GHS-R inverse agonist) came from Polypeptide Laboratories (Strasbourg, France). The GHRH receptor antagonist, acetyl-(D-Arg^2)-GHRH(1-29) amide, and GnRH1-5 were obtained from Bachem, Europe.
(§3) GH secretion by the primary culture cells was quantified using the ALPHALISA® human growth hormone GH kit (Perkin Elmer USA). Prolactin levels were measured in culture medium using a commercial IRMA kit (PRL IRMA Kit-Beckman Coulter Immunotech, Marseille, France). Human GHRH concentrations in plasma were measured using an in-house double-antibody radio-immunoassay as described previously and using a standard solution of Stimu-GH 50 μg (Ferring) and the matrix was non-used culture medium (Girard et al.; Eur. J. Clin. Pharmacol., 32, 507-513, 1987).

somatotroph cells [2] = experiment: Prolactin (PRL) secretion by primary pituitary tumor cell culture of an X-LAG patient; format: cell-based, human; conditions: for effect on prolactin secretion (in words): X-LAG pituitary tumor cell culture, dose range; for PRL change compared to control wells: overnight incubation, mean±SEM; for PRL response on co-incubation with GHRH: co-incubation with GHRH 10^−10M
Protocol: as §1, §2, §3

X-LAG patients = experiment: Clinical treatment of X-LAG patients; format: in vivo, human; conditions: for IGF-1 levels under treatment: octreotide 150 mcg sc t.i.d. together with cabergoline 0.5 mg/week, one patient; for hormonal or growth control: X-LAG patients
Description: Among the nine patients who underwent primary surgical resection, three had immediate GH/PRL control and excessive growth was halted. For those patients in whom growth and GH secretion were not controlled by their initial surgery, the subsequent management was complex. […] Therefore, it can be concluded that the GH receptor antagonist pegvisomant represents a useful option for IGF-1 and growth control.
The patient was a person with no family history of growth disorders. […] […] the patient began to grow excessively in terms of length and weight, exceeding the 97th percentile of their growth charts […]. […] A random level of GHRH was raised, although no potential ectopic sources were identified. […] As chronic treatment with somatostatin analogs and dopamine agonists for 12 months had no effect on the patient's excessive growth and their pituitary lesion began impinging on the optic chiasm, the patient was referred for neurosurgical treatment.

cAMP production = experiment: cAMP assay (HTRF-cAMP Femto Kit) in cells from the tumor; format: cell-based, human; conditions: 10^−6M, 3 h, 37° C.
Protocol: Following the pharmacological co-incubation studies described in Example 13 the response of the tumor cells in terms of cAMP production was assessed. The cells from tumor were seeded into 24-well plates (4×10^4 cells/well). After 24 h in culture, the cAMP concentration was determined using the HTRF-cAMP Femto Kit (CisBio International, Bagnols-sur-Cèze, France), as described previously Cuny et al. (Mol Cell Endocrinol 355, 106-113, 2012). According to the manufacturer's protocol, the cells were detached using trypsin, seeded onto 96-well plates in suspension, and incubated at 37° C. for 3 h in the presence of forskolin. The HTRF assay reagents were then added directly into the 96-well plates.

sporadic X-LAG patient = experiment: Dynamic pituitary hormone tests (TRH test, GnRH test) in the X-LAG patient; format: in vivo, human
Description: Fluctuations in elevated GHRH levels also occurred, and these were partially but not completely in phase with alterations in GH. While the elevated prolactin levels varied by less than +7% from baseline throughout the study, changes in GH levels were more marked (−23.6% to +61.5%).

pituitary = conditions: cited from earlier work
somatotroph cells [3] = experiment: GH secretion by primary pituitary tumor cell culture of an X-LAG patient; format: cell-based, human; conditions: 10^−13 M, overnight incubation, mean±SEM
[4] = TRH 125 μg IV or GnRH 25 μg IV, 0, 15, 30 and 90 minutes
[5] = listed as acetyl-(D-Arg^2)-GHRH(1-29)

## CC(C)(N)C(=O)N[C@H](COCc1ccccc1)C(=O)N1CCC2(CC1)CN(S(C)(=O)=O)c1ccccc12 [MK-0677]
Somatotroph cells [1]; concentration not given, mean±SEM
  GH change compared to control wells: +15±0.5%
Somatotroph cells [2]
  effect on prolactin secretion (in words): no effect on prolactin secretion

## C=CCN1C[C@H](C(=O)N(CCCN(C)C)C(=O)NCC)C[C@@H]2c3cccc4[nH]cc(c34)C[C@H]21 [cabergoline]
Somatotroph cells [1]; 10^−8M, mean±SEM
  GH change compared to control wells: −32±0.8%
Somatotroph cells [2]; concentration not given
  PRL change compared to control wells: −15±0.04%
X-LAG patients
  IGF-1 levels under treatment: remained consistently elevated

## C=C[C@@]1(C)CC(=O)[C@]2(O)[C@@]3(C)[C@@H](O)CCC(C)(C)[C@@H]3[C@H](O)[C@H](OC(C)=O)[C@@]2(C)O1 [forskolin]
cAMP production
  rise in cAMP production compared with controls: +396±1.9%

## CC(C)[C@@H]1NC(=O)[C@H](CCCCN)NC(=O)[C@@H](Cc2c[nH]c3ccccc23)NC(=O)[C@H](Cc2ccc(O)cc2)NC(=O)[C@@H](NC(=O)[C@H](N)Cc2ccc3ccccc3c2)CSSC[C@@H](C(=O)N[C@H](C(N)=O)[C@@H](C)O)NC1=O [lanreotide]
X-LAG patients
  hormonal or growth control: did not lead to hormonal or growth control

## C[C@@H](O)[C@@H]1NC(=O)[C@H](CCCCN)NC(=O)[C@@H](Cc2c[nH]c3ccccc23)NC(=O)[C@H](Cc2ccccc2)NC(=O)[C@@H](NC(=O)[C@H](N)Cc2ccccc2)CSSC[C@@H](C(=O)N[C@H](CO)[C@@H](C)O)NC1=O [octreotide]
Somatotroph cells [1]
  effect on GH secretion (in words): no inhibitory effect on GH or prolactin; also recorded: no inhibition in GH secretion
Somatotroph cells [2]; 10^−9M
  PRL change compared to control wells: −26±0.03%
Somatotroph cells [2]
  effect on prolactin secretion (in words): no inhibitory effect on GH or prolactin
X-LAG patients
  hormonal or growth control: did not lead to hormonal or growth control
  IGF-1 levels under treatment: remained consistently elevated

## NCCCC[C@@H]1NC(=O)[C@@H](Cc2c[nH]c3ccccc23)NC(=O)[C@H](c2ccccc2)NC(=O)[C@@H]2C[C@@H](OC(=O)NCCN)CN2C(=O)[C@H](Cc2ccccc2)NC(=O)[C@H](Cc2ccc(OCc3ccccc3)cc2)NC1=O [pasireotide] (cyclo([Hyp]([CO-Ethylenediamine])[Phg][dW]KY(Bn)F))
Somatotroph cells [1]; 10^−8M, mean±SEM
  GH change compared to control wells: −18±0.6%
Somatotroph cells [1]
  effect on GH secretion (in words): small inhibitory effect on GH secretion
Somatotroph cells [2]
  effect on prolactin secretion (in words): no effect on prolactin secretion

## GHRH: Human GHRH (hGHRH) peptide is comprised of 44 amino acid residues (YADAIFTNSYRKVLGQLSARKLLQDIMSRQQGESNQERGARARL)
Somatotroph cells [1]; 10^−10 M, mean±SEM
  GH change compared to control wells: +41±0.4%
Somatotroph cells [1]
  effect on GH secretion (in words): further stimulated
Somatotroph cells [2]; 10^−8M
  PRL change compared to control wells: +11±0.4%
Somatotroph cells [2]
  effect on prolactin secretion (in words): further stimulated

## Ghrelin
Somatotroph cells [1]
  effect on GH secretion (in words): minor stimulatory effect on GH secretion

## GnRH1-5: fragment of gonadotropin-releasing hormone, putative GPR101 agonist (QHWSY; ends and bridges not checked)
Somatotroph cells [1]; 10^−10 M, mean±SEM
  GH change compared to control wells: +15±1.5%
Somatotroph cells [1]
  effect on GH secretion (in words): little effect on GH
Somatotroph cells [2]
  effect on prolactin secretion (in words): did not stimulate prolactin release

## GnRH: gonadotropin-releasing hormone, 25 μg IV GnRH (HRF-AYERST) (QHWSYGLRPG; not fully specified (residue 1, C-terminus); UniProt P01148 24-33, looked up)
Sporadic X-LAG patient; 25 μg IV GnRH, baseline GH 212 ng/mL
  GH level after GnRH administration: 50 ng/mL
Sporadic X-LAG patient; [4]
  GH response (in words): suppression of GH levels at 30 mins
  GHRH level response (in words): not markedly altered; also recorded: GHRH levels remained unaltered; also recorded: remained elevated throughout
  prolactin response (in words): prolactin rose mildly

## Tyr-Ala-Asp-Ala-Ile-Phe-Thr-Asn-Ser-Tyr-Arg-Lys-Val-Leu-Gly-Gln-Leu-Ser-Ala-Arg-Lys-Leu-Leu-Gln-Asp-Ile-Met-Ser-Arg-NH2 [GHRH(1-29)]
pituitary
  potency relative to native GHRH: ≥ 50%

## acetyl-(D-Arg^2)-GHRH(1-29) amide (Ac-Y[dR]DAIFTNSYRKVLGQLSARKLLQDIMSR-NH2; SMILES CC[C@H](C)[C@H](NC(=O)[C@H](C)NC(=O)[C@H](CC(=O)O)NC(=O)[C@@H](CCCNC(=N)N)NC(=O)[C@H](Cc1ccc(O)cc1)NC(C)=O)C(=O)N[C@@H](Cc1ccccc1)C(=O)N[C@H](C(=O)N[C@@H](CC(N)=O)C(=O)N[C@@H](CO)C(=O)N[C@@H](Cc1ccc(O)cc1)C(=O)N[C@@H](CCCNC(=N)N)C(=O)N[C@@H](CCCCN)C(=O)N[C@H](C(=O)N[C@@H](CC(C)C)C(=O)NCC(=O)N[C@@H](CCC(N)=O)C(=O)N[C@@H](CC(C)C)C(=O)N[C@@H](CO)C(=O)N[C@@H](C)C(=O)N[C@@H](CCCNC(=N)N)C(=O)N[C@@H](CCCCN)C(=O)N[C@@H](CC(C)C)C(=O)N[C@@H](CC(C)C)C(=O)N[C@@H](CCC(N)=O)C(=O)N[C@@H](CC(=O)O)C(=O)N[C@H](C(=O)N[C@@H](CCSC)C(=O)N[C@@H](CO)C(=O)N[C@@H](CCCNC(=N)N)C(N)=O)[C@@H](C)CC)C(C)C)[C@@H](C)O) [acetyl-(D-Arg^2)-GHRH (1-29) amide]
Somatotroph cells [1]; 10^−11M, mean±SEM
  GH change compared to control wells: +13±1.9%
Somatotroph cells [1]
  effect on GH secretion (in words): reduce basal and stimulated GH and prolactin secretion in a dose dependent manner
  GH response on co-incubation with GHRH: complete abolition
Somatotroph cells [1]; [5]
  GH response on co-incubation with GHRH: abolished the stimulatory effect of GHRH itself
Somatotroph cells [1]; highest GHRH-receptor antagonist dose studied
  GH change compared to control wells: approximately −34±1.9%
Somatotroph cells [2]; 10^−8M
  PRL change compared to control wells: −73±0.1%
Somatotroph cells [2]
  effect on prolactin secretion (in words): reduce basal and stimulated GH and prolactin secretion in a dose dependent manner
  PRL response on co-incubation with GHRH: complete abolition
Somatotroph cells [2]; [5]
  PRL response on co-incubation with GHRH: abolished the stimulatory effect of GHRH itself
Somatotroph cells [3]
  GH change compared to control wells: +18±0.8%

## pegvisomant
X-LAG patients; postoperative use in X-LAG patients
  control of IGF1 (and growth): control of IGF1 in all five X-LAG patients; also recorded: control of IGF1 and excessive growth in three patients
